In US6410533B1, “Antibacterial compounds” (Genzyme Corporation, priority 2000, dated 2002):
pIC50: −log10 of the molar value. Values after ≈ are worked out from the molar mass of the structure shown. Read-outs that look alike come from different tables or passages of the source.

Experiments:
[1] = tested on: Staphylococcus aureus bacteria (ATCC 9604 SV); test: Minimal inhibitory concentration (MIC), broth microdilution; type: cell-based; details: 24 h at 37° C.
Procedure: (§1) Minimal inhibitory concentrations (MICs) for Staphylococcus aureus bacteria (ATCC 9604 SV) were determined by broth microdilution methodology following National Committee for Clinical Laboratory Standards. In the MIC determinations, the compounds were incorporated into Mueller-Hinton broth (Becton Dickinson Microbiology systems, Cockeyville, Md.) at a series of concentrations. After the test organism was grown overnight in TB broth, the broths were adjusted to the turbidity equivalent to 0.05 McFarland standard. The suspensions were diluted twenty-fold into the broth containing the compounds. […] In the IC50 determination, the method was modified to allow the rapid growth of the organisms. The inoculum suspensions were adjusted to 0.1 McFarland standard and then diluted two-fold into the wells containing TB broth and the compounds. After three to five hours incubation at 37° C., the turbidity was measured at 550 nm and inhibitory activity was defined as the concentration of antimicrobial agent that inhibits 50% growth of the organism in the microdilution wells.

[2] = tested on: Staphylococcus aureus bacteria (ATCC 9604 SV); test: IC50 determination, growth inhibition by turbidity at 550 nm; type: cell-based; details: Staphylococcus aureus ATCC 9604 SV, turbidity at 550 nm after 3-5 h at 37° C.
Procedure: as §1

[3] = tested on: methicillin-resistant Staphylococcus aureus (ATCC 33591); test: In vivo mouse intraperitoneal infection, mortality and % survivors over 7 days; details: MRSA ATCC 33591 i.p., ICR mice; for In Vivo, double dose (% of mice rescued): 1 and 5 h post inoculation; for In Vivo, single dose (% of mice rescued): single dose 1 h post inoculation
Procedure: Ten male ICR mice weighing 20 grams were inoculated intraperitoneally with an LD90-100 dose (2-3×10^7 CFU/mouse) of methicillin-resistant Staphylococcus aureus (ATCC 33591) in brain-heart infusion broth containing 5% mucin. Compounds were suspended in a vehicle containing 1% cremophore EL (Sigma) in normal saline and were administered subcutaneously in a volume of 0.4 ml per mouse either 1 hour following bacterial inoculation or 1 and 5 hours post inoculation. Animals receiving two doses of drug were injected subcutaneously in the hindquarter one hour post-innoculation and in the neck area, 5 hours post-innoculation. Deaths occurring during the subsequent 7 days are recorded. Mortality and % survivor endpoints are calculated.

[4] = ATCC9604, Staphylococcus aureus ATCC 9604 SV, read-out: MIC
[5] = Staphylococcus aureus ATCC 9604 SV

## O=C1CC(c2ccccc2)=NN1c1cc(Cl)cc(Cl)c1 [Compound 1, 2-(3,5-Dichloro-phenyl)-5-phenyl-2,4-dihydro-pyrazol-3-one]
[1]; [4]
  MIC: 0.122 µg/mL (≈ 0.4 µM)
[2]; ATCC9604
  pIC50: 6.27
[3]; 2 × 2 mg/kg s.c.
  In Vivo, double dose (% of mice rescued): 0% @ 2 × 2 mg/kg
[3]; 2 × 20 mg/kg s.c.
  In Vivo, double dose (% of mice rescued): 25% @ 2 × 20 mg/kg

## O=C1CC(c2ccccc2)=NN1c1ccc(Cl)c(Cl)c1 [Compound 2]
[1]; [5]
  MIC: 1.91 µg/mL (≈ 6.26 µM)
[2]
  pIC50: 6.35
[3]; 2 × 2 mg/kg s.c.
  In Vivo, double dose (% of mice rescued): 0% @ 2 × 2 mg/kg
[3]; 2 × 20 mg/kg s.c.
  In Vivo, double dose (% of mice rescued): 0% @ 2 × 20 mg/kg

## COc1ccc(C=C2C(=O)N(c3cc(Cl)cc(Cl)c3)N=C2c2ccccc2)cc1 [Compound 3, 2-(3,5-Dichloro-phenyl)-4-(4-methoxy-benzylidene)-5-phenyl-2,4-dihydro-pyrazol-3-one]
[1]; [4]
  MIC: 1.3 µg/mL (≈ 3.07 µM)
[2]; ATCC9604
  pIC50: 6.01
[3]; 2 × 2 mg/kg s.c.
  In Vivo, double dose (% of mice rescued): 25% @ 2 × 2 mg/kg
[3]; 2 × 20 mg/kg s.c.
  In Vivo, double dose (% of mice rescued): 25% @ 2 × 20 mg/kg

## CC(C)(C)c1cc(NC(=O)Nc2cc(C(F)(F)F)cc(C(F)(F)F)c2)n(-c2ccc(C(F)(F)F)cc2)n1 [Compound 72]
[1]; [5]
  MIC: 0.808 µg/mL (≈ 1.5 µM)
[2]
  pIC50: 7.24
[3]; 2 mg/kg s.c.
  In Vivo, single dose (% of mice rescued): 0% @ 2 mg/kg
[3]; 20 mg/kg s.c.
  In Vivo, single dose (% of mice rescued): 0% @ 20 mg/kg

## CC(C)(C)c1cc(NC(=O)Nc2cc(Cl)cc(Cl)c2)n(-c2ccc(C(F)(F)F)cc2)n1 [Compound 73]
[2]
  pIC50: 7.08
[3]; 2 mg/kg s.c.
  In Vivo, single dose (% of mice rescued): 0% @ 2 mg/kg
[3]; 20 mg/kg s.c.
  In Vivo, single dose (% of mice rescued): 0% @ 20 mg/kg

## O=C(Nc1cc(C(F)(F)F)cc(C(F)(F)F)c1)Nc1cc(Cc2ccccc2)nn1-c1ccc(C(F)(F)F)cc1 [Compound 74]
[1]; [5]
  MIC: 3.43 µg/mL (≈ 5.99 µM)
[2]
  pIC50: 6.90

## O=C(Nc1ccc(Cl)c(C(F)(F)F)c1)Nc1cc(-c2ccccc2)nn1-c1ccc(C(F)(F)F)cc1 [Compound 75]
[1]; [5]
  MIC: <0.787 µg/mL
[2]
  pIC50: 7.02

## O=C(Nc1cc(C(F)(F)F)cc(C(F)(F)F)c1)Nc1cc(-c2ccc(CN3CCOCC3)cc2)nn1-c1ccc(C(F)(F)F)cc1 [Compound 88]
[1]; [5]
  MIC: >32.9 µg/mL
[2]
  pIC50: 5.83

## CN(C)Cc1cc(NC(=O)Nc2cc(C(F)(F)F)cc(C(F)(F)F)c2)n(-c2ccc(C(F)(F)F)cc2)n1 [Compound 90]
[1]; [5]
  MIC: 13.5 µg/mL (≈ 25 µM)
[2]
  pIC50: 5.36

## O=C(Nc1cc(C(F)(F)F)cc(C(F)(F)F)c1)Nc1c(Br)cnn1-c1ccc(Br)cc1 [Compound 97, 1-(3,5-Bis-trifluoromethyl-phenyl)-3-[4-bromo-2-(4-bromo-phenyl)-2H-pyrazol-3-yl]-urea]
[1]; [4]
  MIC: > 29.3 µg/mL
[2]; ATCC9604
  pIC50: 6.97

## O=C(Nc1cc(Cl)cc(Cl)c1)Nc1c2c(nn1-c1ccc(Br)cc1)CCCC2 [Compound 105]
[1]; [5]
  MIC: >24.0 µg/mL
[2]
  pIC50: 5.49

## O=C(Nc1cc(C(F)(F)F)cc(C(F)(F)F)c1)Nc1c2c(nn1-c1ccc(Br)cc1)CCCC2 [Compound 106]
[1]; [5]
  MIC: >27.4 µg/mL
[2]
  pIC50: 6.34

## Cc1cc(-c2cc(NC(=O)Nc3cc(C(F)(F)F)cc(C(F)(F)F)c3)n(-c3ccc(Br)cc3)n2)no1 [Compound 115]
[1]; [5]
  MIC: 1.72 µg/mL (≈ 3 µM)
[2]
  pIC50: 6.40

## O=C(Nc1cc(Cl)cc(Cl)c1)Nc1cc(-c2ccncc2)nn1-c1ccc(Br)cc1 [Compound 118]
[1]; [5]
  MIC: 0.755 µg/mL (≈ 1.5 µM)
[2]
  pIC50: 6.62

## O=C(Nc1cc(C(F)(F)F)cc(C(F)(F)F)c1)Nc1cc(-c2ccncc2)nn1-c1ccc(Br)cc1 [Compound 119]
[1]; [5]
  MIC: 0.855 µg/mL (≈ 1.5 µM)
[2]
  pIC50: 6.79

## Cc1cnc(NC(=O)Nc2cc(C(F)(F)F)cc(C(F)(F)F)c2)s1 [Compound 122]
[1]; [5]
  MIC: >18.5 µg/mL
[2]
  pIC50: 5.57

## Cc1nc(NC(=O)Nc2cc(C(F)(F)F)cc(C(F)(F)F)c2)sc1C [Compound 123]
[1]; [5]
  MIC: 1.15 µg/mL (≈ 3 µM)
[2]
  pIC50: 6.28

## C=CCCc1csc(NC(=O)Nc2cc(C(F)(F)F)cc(C(F)(F)F)c2)n1 [Compound 126]
[1]; [5]
  MIC: 10.2 µg/mL (≈ 24.9 µM)
[2]
  pIC50: 6.21

## O=C(O)Cc1csc(NC(=O)Nc2cc(C(F)(F)F)cc(C(F)(F)F)c2)n1 [Compound 127]
[1]; [5]
  MIC: >20.7 µg/mL
[2]
  pIC50: 4.53

## CCOC(=O)c1nc(NC(=O)Nc2cc(C(F)(F)F)cc(C(F)(F)F)c2)sc1C [Compound 128]
[2]
  pIC50: 6.29
[3]; 2 mg/kg s.c.
  In Vivo, single dose (% of mice rescued): 0% @ 2 mg/kg
[3]; 20 mg/kg s.c.
  In Vivo, single dose (% of mice rescued): 0% @ 20 mg/kg

## CCOC(=O)C(=O)c1csc(NC(=O)Nc2cc(C(F)(F)F)cc(C(F)(F)F)c2)n1 [Compound 129]
[1]; [5]
  MIC: 11.4 µg/mL (≈ 25 µM)
[2]
  pIC50: 6.03

## O=C(Nc1cc(C(F)(F)F)cc(C(F)(F)F)c1)Nc1nc(Cc2ccccc2)cs1 [Compound 130]
[1]; [5]
  MIC: 1.34 µg/mL (≈ 3.01 µM)
[2]
  pIC50: 6.56

## O=C(Nc1cc(C(F)(F)F)cc(C(F)(F)F)c1)Nc1nc(CCc2ccccc2)cs1 [Compound 131]
[1]; [5]
  MIC: 23.4 µg/mL (≈ 50.9 µM)
[2]
  pIC50: 6.44

## O=C(Nc1cc(C(F)(F)F)cc(C(F)(F)F)c1)Nc1nc(-c2cccc(F)c2)cs1 [Compound 135]
[1]; [5]
  MIC: 1.35 µg/mL (≈ 3 µM)
[2]
  pIC50: 6.97

## O=C(Nc1cc(C(F)(F)F)cc(C(F)(F)F)c1)Nc1nc(-c2ccc(F)cc2)cs1 [Compound 139]
[2]
  pIC50: 7.00
[3]; 2 mg/kg s.c.
  In Vivo, single dose (% of mice rescued): 0% @ 2 mg/kg
[3]; 20 mg/kg s.c.
  In Vivo, single dose (% of mice rescued): 0% @ 20 mg/kg

## O=C(Nc1cc(C(F)(F)F)cc(C(F)(F)F)c1)Nc1nc(-c2ccc(OC(F)F)cc2)cs1 [Compound 142]
[1]; [5]
  MIC: 6.22 µg/mL (≈ 12.5 µM)
[2]
  pIC50: 6.63

## O=C(Nc1cc(C(F)(F)F)cc(C(F)(F)F)c1)Nc1nc(-c2ccc(C(F)(F)F)cc2)cs1 [Compound 143]
[1]; [5]
  MIC: 1.40 µg/mL (≈ 2.8 µM)
[2]
  pIC50: 6.89

## O=C(Nc1cc(C(F)(F)F)cc(C(F)(F)F)c1)Nc1nc(-c2ccc(CO)cc2)cs1 [Compound 145]
[1]; [5]
  MIC: >23.1 µg/mL
[2]
  pIC50: 5.43

## O=C(Nc1cc(C(F)(F)F)cc(C(F)(F)F)c1)Nc1nc(-c2ccc(CCO)cc2)cs1 [Compound 146]
[1]; [5]
  MIC: 2.71 µg/mL (≈ 5.7 µM)
[2]
  pIC50: 5.79

## O=C(Nc1cc(C(F)(F)F)cc(C(F)(F)F)c1)Nc1nc(-c2cc(CO)no2)cs1 [Compound 154]
[1]; [5]
  MIC: >22.6 µg/mL
[2]
  pIC50: 4.70

## O=C(Nc1cc(C(F)(F)F)cc(C(F)(F)F)c1)Nc1nc(-c2cccs2)cs1 [Compound 155]
[1]; [5]
  MIC: 1.31 µg/mL (≈ 3 µM)
[2]
  pIC50: 6.59

## O=C(Nc1cc(C(F)(F)F)cc(C(F)(F)F)c1)Nc1nc2ccccc2s1 [Compound 156]
[1]; [5]
  MIC: 1.22 µg/mL (≈ 3.01 µM)
[2]
  pIC50: 6.53

## O=C(Nc1ccc(OC(F)F)cc1)Nc1nc(-c2ccc(F)c(F)c2)cs1 [Compound 160]
[1]; [5]
  MIC: 1.19 µg/mL (≈ 2.99 µM)
[2]
  pIC50: 6.34

## O=C(Nc1ccc(SC(F)(F)F)cc1)Nc1nc(-c2ccc(F)c(F)c2)cs1 [Compound 161]
[1]; [5]
  MIC: <0.647 µg/mL
[2]
  pIC50: 6.87

## O=C(Nc1ccc(F)c(C(F)(F)F)c1)Nc1nc(-c2cccc(F)c2)cs1 [Compound 165]
[1]; [5]
  MIC: 2.40 µg/mL (≈ 6.01 µM)
[2]
  pIC50: 6.44

## Cc1cc(-c2csc(NC(=O)Nc3ccc(F)c(C(F)(F)F)c3)n2)ccc1F [Compound 169]
[1]; [5]
  MIC: >20.7 µg/mL
[2]
  pIC50: 6.18

## O=C(Nc1nc(-c2ccc(Cl)cc2)cs1)Nc1cc(Cl)c(Cl)cc1Cl [Compound 170]
[1]; [5]
  MIC: >21.7 µg/mL
[2]
  pIC50: 6.04

## O=C(NCc1ccc(Cl)c(Cl)c1)Nc1nc(-c2ccc(F)c(F)c2)cs1 [Compound 182]
[1]; [5]
  MIC: 5.18 µg/mL (≈ 12.5 µM)
[2]
  pIC50: 5.55

## CC(NC(=O)Nc1nc(-c2ccc(Br)cc2)cs1)C(O)c1ccccc1 (centres unmarked) [Compound 183]
[1]; [5]
  MIC: 10.8 µg/mL (≈ 25 µM)
[2]
  pIC50: 5.20
